# Bridge positions count the residues as written; N and C are the ends. Square brackets hold non-standard residues; d marks the D form. Peptide text beside a SMILES is read from it. * marks the point of attachment. Ileψ(thiazoline)Cys = CC[C@H](C)[C@H](N)C1=N[C@H](C(=O)*)CS1; dOrn = NCCC[C@@H](N)C(=O)O
# Experiments:
# full-length PDI = molecular target: T1, full-length PDI (Homo sapiens, UniProt P07237); assay: Small-angle X-ray scattering (SAXS); conditions: PDI complexed with compound; full-length oxidized PDI 40.0 Å, FIG. 5d
# T1 construct: FLAG; made in house; host or cells: Escherichia coli Origami B (DE3), pET-15b
# Experimental: Further purification of full-length PDI was achieved by gel filtration. PDI (1.5, 3.0 and 4.5 mg/mL) was dialyzed against 20 mM Tris, 150 mM NaCl, 5% glycerol (pH: 8.0) containing 0.5 mM bepristat 1b or 2b or DMSO control at 4° C. overnight. Evaluation by SAXS was performed on the SIBYLS beamline in the Advanced Light Source using a high throughput data collection method.
# PDI [1] = molecular target: T2, PDI (Homo sapiens, UniProt P07237); assay: Di-eosin-GSSG disulfide reductase assay; format: biochemical; conditions: for change of apparent KM in the di-eosin-GSSG assay of PDI reductase activity / change of apparent kcat in the di-eosin-GSSG assay of PDI reductase activity: FIG. 6d
# T2 construct: FLAG; made in house; host or cells: Escherichia coli Origami B (DE3), pET-15b
# Experimental: (§1) The probe di-eosin glutathione disulfide, di-eosin-GSSG, was prepared as previously described in Raturi, A., Vacratsis, P. O., Seslija, D., Lee, L. & Mutus, B., Biochem J 391, 351-357 (2005). Reductase activity of purified thiol isomerases and PDI domains was monitored in a 96-well fluorescence plate format. PDI, AGHA-PDI, ERpS, ERp57, ERp72 and PDI domains were assayed at 50 nM in the presence or absence of the indicated small molecules, peptides or cathepsin G. The assay included 100 mM potassium phosphate (pH 7.4) containing 2 mM EDTA, 5 μM DTT and 150 nM of the di-eosin GSSG probe. The increase in fluorescence was determined for 20 minutes by excitation at 520 nm and emission at 550 nm in a Synergy Biotek 4. The reduction of 150 nM di-eosin-GSSG by 5 μM DTT in the presence or absence of mentioned small molecules, peptides or proteins served as a negative control.
# Michaelis Menten analysis was assayed using PDI at 20 nM and small molecules, peptides or cathepsin G at concentrations causing maximal augmentation under similar buffer conditions as described above. 8-point response curves were generated using a range of different di-eosin-GSSG concentrations (50-5000 nM). Enzyme kinetics analysis was performed using Graphpad Prism 5.0.
# ERp5 [2] = molecular target: T3, ERp5 (Homo sapiens, UniProt Q15084); assay: Di-eosin-GSSG disulfide reductase assay; format: biochemical
# T3 construct: recombinant His-tagged full-length ERp5, ERp72 and PDI domain fragments; His; made in house; host or cells: Escherichia coli Origami B (DE3), pET-15b
# T3 sequence (Q15084 20-440): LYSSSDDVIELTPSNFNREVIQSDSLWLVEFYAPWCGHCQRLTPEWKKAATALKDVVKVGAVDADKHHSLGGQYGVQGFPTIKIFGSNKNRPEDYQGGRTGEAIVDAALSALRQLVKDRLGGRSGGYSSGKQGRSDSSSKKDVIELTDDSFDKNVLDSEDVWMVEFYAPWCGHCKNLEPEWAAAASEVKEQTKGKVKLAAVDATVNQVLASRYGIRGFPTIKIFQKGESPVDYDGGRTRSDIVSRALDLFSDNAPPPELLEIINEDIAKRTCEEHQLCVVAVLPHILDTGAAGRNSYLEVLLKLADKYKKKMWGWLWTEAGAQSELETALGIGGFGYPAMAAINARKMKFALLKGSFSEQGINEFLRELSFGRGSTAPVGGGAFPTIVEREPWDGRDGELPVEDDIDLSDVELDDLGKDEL
# Experimental: as §1
# ERp57 [3] = molecular target: T4, ERp57 (Homo sapiens, UniProt P30101); assay: Di-eosin-GSSG disulfide reductase assay; format: biochemical
# T4 construct: FLAG; made in house; host or cells: Escherichia coli Origami B (DE3), pET-15b
# T4 sequence (P30101 25-505): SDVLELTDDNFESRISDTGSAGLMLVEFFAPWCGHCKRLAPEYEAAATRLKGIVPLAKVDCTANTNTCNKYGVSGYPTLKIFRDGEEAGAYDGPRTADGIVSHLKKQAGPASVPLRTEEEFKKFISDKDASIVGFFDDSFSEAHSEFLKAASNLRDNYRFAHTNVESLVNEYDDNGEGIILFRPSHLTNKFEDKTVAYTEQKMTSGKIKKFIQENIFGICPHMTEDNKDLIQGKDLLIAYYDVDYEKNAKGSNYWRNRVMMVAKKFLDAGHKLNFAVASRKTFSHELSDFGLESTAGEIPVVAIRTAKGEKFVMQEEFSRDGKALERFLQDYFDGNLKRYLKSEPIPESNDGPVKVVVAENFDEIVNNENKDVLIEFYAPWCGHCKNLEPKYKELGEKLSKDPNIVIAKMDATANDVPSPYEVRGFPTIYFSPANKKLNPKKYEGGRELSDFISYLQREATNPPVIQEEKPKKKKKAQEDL
# Experimental: as §1
# ERp72 = molecular target: T5, ERp72 (Homo sapiens, UniProt P13667); assay: Di-eosin-GSSG disulfide reductase assay; format: biochemical
# T5 construct: recombinant His-tagged full-length ERp5, ERp72 and PDI domain fragments; His; made in house; host or cells: Escherichia coli Origami B (DE3), pET-15b
# T5 sequence (P13667 21-645): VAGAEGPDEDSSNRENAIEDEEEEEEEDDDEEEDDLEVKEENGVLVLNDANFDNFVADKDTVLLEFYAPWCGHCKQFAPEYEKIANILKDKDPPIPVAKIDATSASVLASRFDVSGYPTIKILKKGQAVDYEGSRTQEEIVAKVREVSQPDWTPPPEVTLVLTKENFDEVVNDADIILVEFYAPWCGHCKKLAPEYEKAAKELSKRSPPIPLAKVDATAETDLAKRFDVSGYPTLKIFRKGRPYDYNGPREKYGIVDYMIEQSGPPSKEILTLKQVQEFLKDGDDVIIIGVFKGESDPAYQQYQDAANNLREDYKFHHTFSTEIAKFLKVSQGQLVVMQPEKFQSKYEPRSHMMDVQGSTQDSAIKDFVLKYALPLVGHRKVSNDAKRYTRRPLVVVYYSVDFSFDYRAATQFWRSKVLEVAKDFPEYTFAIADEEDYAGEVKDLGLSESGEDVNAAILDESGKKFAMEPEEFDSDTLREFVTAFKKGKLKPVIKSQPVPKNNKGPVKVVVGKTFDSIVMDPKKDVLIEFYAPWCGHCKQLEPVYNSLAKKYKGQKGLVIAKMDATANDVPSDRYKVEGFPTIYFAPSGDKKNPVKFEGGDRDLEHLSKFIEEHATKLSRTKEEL
# Experimental: as §1
# PDI [4] = molecular target: T2, PDI; conditions: cited from earlier work
# ERp5 [5] = molecular target: T3, ERp5; assay: Insulin reductase assay, thiol isomerase selectivity; format: biochemical; conditions: 10-fold IC50, FIG. 2
# Experimental: (§2) The thiol isomerase-catalyzed reduction of insulin was assayed by measuring the increase in turbidity as detected at an optical density (OD) of 650 nm using a Spectramax M3 (Molecular Devices, Sunnyvale, Calif.). The validation assay consisted of 175 nM of PDI in a solution containing 100 mM potassium phosphate (pH 7.4) containing 0.2 mM bovine insulin, 2 mM EDTA, and 0.3 mM DTT (all purchased from Sigma Aldrich, St. Louis, Mo.), inhibitors were used at the concentrations indicated. The reaction was performed at 25° C. for one hour and thirty minutes. For assays of thiol isomerase selectivity, 11 nM PDI, ERp57 or Thioredoxin, or 33 nM ERpS were assayed in similar buffer conditions as described above and inhibitors were used at the indicated concentration. The reaction was performed at 37° C. for forty-five minutes. For assays of isolated domains studies, 400 nM protein was used, except for a, a′ and ab, in which 800 nM protein was used. The assay was performed in similar buffer conditions as described above. Bepristat 2a and N-(2,4-Dimethoxyphenyl)-N-(1-oxo-2-propyn-1-yl)-2-(2-thienyl)glycyl-glycine ethyl ester (PACMA-31) were used at a final concentration of 15 μM in these studies.
# ERp57 [6] = molecular target: T4, ERp57; assay: as above; format: biochemical; conditions: FIG. 2
# Experimental: as §2
# thioredoxin [7] = molecular target: T6, thioredoxin (Homo sapiens, UniProt P10599); assay: as above; format: biochemical; conditions: 10-fold IC50, FIG. 2
# T6 sequence (P10599 1-105): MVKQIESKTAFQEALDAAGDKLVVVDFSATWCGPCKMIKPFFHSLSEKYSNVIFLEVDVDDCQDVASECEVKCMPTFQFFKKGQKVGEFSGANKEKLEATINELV
# Experimental: as §2
# ERp5 [8] = molecular target: T3, ERp5; assay: Maleimide-polyethylene glycol-2-biotin (MPB) binding; conditions: 150 μM inhibitor, FIG. 2c, FIG. 8
# Experimental: (§3) Maleimide-Polyethanol glycol-2-Biotin (MPB) binding experiments were performed in a reaction volume of 37.5 μL with 5 μM of thiol isomerase or bovine serum albumin (BSA) in Tris-buffered saline (TBS), in the presence and absence of 1 mM of N-ethylmaleimide (NEM) or bacitracin, and 150 μM of the mentioned other inhibitors. The reaction mixture was incubated at 37° C. for 1 hour. Subsequently, the reaction mixtures were incubated with 25 μM of MPB. The labeling was performed for 20 minutes at 25° C. A total of 12.5 μL of 4× Laemmli Sample Buffer with 5% β-mercaptoethanol was added to each of the samples, followed by heating at 95° C. for 10 minutes. From each sample, 10 μL was loaded on a 12% SDS-PAGE gel, followed by transfer on a nitrocellulose membrane. After blocking the membrane with TBS-T containing 5% BSA for one hour, the membrane was incubated with a 1:2000 dilution of Cy5-tagged Streptavidin for an hour in the dark. Detection of the immunoblots was performed using ImageQuant LAS 4000 and analysis was performed using ImageQuant TL software.
# ERp57 [9] = molecular target: T4, ERp57; assay: as above; conditions: 150 μM inhibitor, FIG. 2c, FIG. 8
# Experimental: as §3
# thioredoxin [10] = molecular target: T6, thioredoxin; assay: as above; conditions: 150 μM inhibitor, FIG. 2c, FIG. 8
# Experimental: as §3
# thrombus formation = conditions: literature; cited from earlier work
# T2 sequence (P07237 18-508): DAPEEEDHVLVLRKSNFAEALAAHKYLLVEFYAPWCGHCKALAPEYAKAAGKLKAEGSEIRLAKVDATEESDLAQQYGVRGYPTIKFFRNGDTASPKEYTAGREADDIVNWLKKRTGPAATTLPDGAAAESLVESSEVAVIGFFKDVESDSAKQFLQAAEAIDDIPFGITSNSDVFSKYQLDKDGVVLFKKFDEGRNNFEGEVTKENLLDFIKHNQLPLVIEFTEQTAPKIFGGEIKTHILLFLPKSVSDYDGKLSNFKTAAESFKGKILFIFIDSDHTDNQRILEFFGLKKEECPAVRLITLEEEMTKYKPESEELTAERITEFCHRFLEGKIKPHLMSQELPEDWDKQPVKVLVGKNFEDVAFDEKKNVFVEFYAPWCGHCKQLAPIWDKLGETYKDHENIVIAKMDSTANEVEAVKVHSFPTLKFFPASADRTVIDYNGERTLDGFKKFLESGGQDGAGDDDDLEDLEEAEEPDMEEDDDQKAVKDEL
# T1 sequence (P07237 18-508): as above
Compound,change of apparent KM in the di-eosin-GSSG assay of PDI reductase activity (PDI [1]),cleavage of di-eosin-GSSG probe by PDI (reductase activity at catalytic cysteines) (PDI [1]),change of apparent kcat in the di-eosin-GSSG assay of PDI reductase activity (PDI [1]),cleavage of di-eosin-GSSG by ERp5 (catalytic activity) (ERp5 [2]),cleavage of di-eosin-GSSG by ERp57 (catalytic activity) (ERp57 [3]),cleavage of di-eosin-GSSG by ERp72 (catalytic activity) (ERp72),further results
CCOC(=O)c1c(CNCCN(CC)CC)n(-c2ccccc2)c2cc(Br)c(O)cc12 [bepristat 2b],–,–,–,–,–,–,gyration radius (Rg) of PDI (full-length PDI): 35.9 Å
"C[C@H](N)C(=O)NCC(=O)N[C@H]1CSSC[C@@H](C(=O)O)NC(=O)[C@H](CO)NC(=O)[C@H]([C@@H](C)O)NC(=O)[C@H](Cc2ccccc2)NC(=O)[C@H]([C@@H](C)O)NC(=O)[C@H](CCCCN)NC(=O)[C@H](Cc2c[nH]c3ccccc23)NC(=O)[C@H](Cc2ccccc2)NC(=O)[C@H](Cc2ccccc2)NC(=O)[C@H](CC(N)=O)NC(=O)[C@H](CCCCN)NC1=O [somatostatin, reference compound]",decreased the apparent KM,–,–,–,–,–,–
mastoparan [reference compound],decreased the apparent KM,enhanced the ability of PDI to cleave di-eosin-GSSG in a dose-dependent manner,None of them altered the apparent kcat,inhibited the catalytic activity of ERp5 and ERp57 to varying degrees,inhibited the catalytic activity of ERp5 and ERp57 to varying degrees,augmented the catalytic activity of ERp72,PDI activity in RNase refolding assay (PDI [4]): inhibits PDI activity in an RNase refolding assay
CC[C@H](C)[C@H](N)C1=N[C@H](C(=O)N[C@@H](CC(C)C)C(=O)N[C@H](CCC(=O)O)C(=O)N[C@H](C(=O)N[C@H]2CCCCNC(=O)[C@H](CC(N)=O)NC(=O)[C@@H](CC(=O)O)NC(=O)[C@H](Cc3cnc[nH]3)NC(=O)[C@@H](Cc3ccccc3)NC(=O)[C@H]([C@@H](C)CC)NC(=O)[C@@H](CCCN)NC2=O)[C@@H](C)CC)CS1 [bacitracin] ({Ileψ(thiazoline)Cys}-L[dE]IK[dOrn]I[dF]H[dD]N; lactam 4-C),–,blocked PDI-mediated cleavage of di-eosin-GSSG,–,–,–,–,inhibition of reductase activity of ERp5 (ERp5 [5]): showed activity against all thiol isomerases tested; inhibition of reductase activity of ERp57 (ERp57 [6]): showed activity against all thiol isomerases tested; inhibition of reductase activity of thioredoxin (thioredoxin [7]): showed activity against all thiol isomerases tested; reaction of MPB with the catalytic cysteines of ERp5 (ERp5 [8]): interfered with the reaction of maleimide-polyethylene glycol-2-biotin (MPB); reaction of MPB with the catalytic cysteines of ERp57 (ERp57 [9]): interfered with the reaction of maleimide-polyethylene glycol-2-biotin (MPB); reaction of MPB with the catalytic cysteines of thioredoxin (thioredoxin [10]): interfered with the reaction of maleimide-polyethylene glycol-2-biotin (MPB); thrombus formation in vivo (thrombus formation): inhibits thrombus formation in vivo
cathepsin G: a protein substrate of PDI,decreased the apparent KM,elicits enhanced reductase activity,None of them altered the apparent kcat,inhibited the catalytic activity of ERp5 and ERp57 to varying degrees,inhibited the catalytic activity of ERp5 and ERp57 to varying degrees,augmented the catalytic activity of ERp72,–
